Broadly, the IC50 is the concentration that gives 50% inhibition. For orientation: melting point means the temperature, or range, at which the solid turns liquid.

Data set [1] deals with T1, HCV polymerase (NS5B570n-Con1) (Hepatitis C virus genotype 1b, UniProt Q9WMX2).
T1 construct: contains a 21 amino acid deletion at the C-terminus relative to the full-length HCV polymerase; 6-histidine (N); made in house; host or cells: E. coli BL21 (DE) pLysS
The data set can be described thus: HCV NS5B RNA polymerase activity assay. Type of data set: biochemical, HCV Con1 strain. In short, it runs like this:
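His6-tagged NS5B Con1 (genotype 1b, 21-aa C-terminal deletion; 20 nM) copied 20 nM cIRES RNA template with [3H]UTP plus 1 μM ATP, CTP and GTP in pH 8.0 Tris buffer with 4 mM MgCl2 and DTT, 2 h at 30 °C. TCA-precipitated RNA counted by scintillation. IC50 from four-parameter fit versus no-compound control, no-enzyme background subtracted.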

In data set [2] the test system is HCV replicon cells (2209-23), genotype 1b replicon in Huh7 cells. The data set can be described thus: HCV replicon assay (Renilla luciferase reporter). It counts as cell-based, HCV genotype 1b. As to conditions: Hepatitis C virus, Huh-7, 72 h; cell line 2209-23, three days incubation.
The next data set in a line: in vitro. As to conditions: human.
The next data set has as its system HCV. To be noted: monotherapy; cited from earlier work.
[3] abbreviates: IC50 NS5B polymerase assay, Table I.
Where [4] appears, read: Polymerase Assay IC50, Table II.

`CNC(=O)c1c(-c2ccc(Nc3ccccc3)cc2)oc2cc(N(CCO)S(C)(=O)=O)c(OC)cc12` [Compound I-1, 6-[(2-hydroxy-ethyl)-methanesulfonyl-amino]-5-methoxy-2-(4-phenylamino-phenyl)-benzofuran-3-carboxylic acid methylamide]: the melting point was 144.6 to 146.9 °C. In data set [1] (setting [3]), this compound had an IC50 of 0.043 µM. Further, the IC50 in data set [1] (setting [4]) amounted to 0.005 µM. In data set [2], this compound displayed a 50% inhibitory concentration (IC50) of 0.043 µM. For the same compound, in “in vitro”, the CC50 was 30.6 µM.
In the case of `CNC(=O)c1c(-c2ccc(Oc3ccc(F)cc3)cc2)oc2cc(N(CCCN)S(C)(=O)=O)c(C3CC3)cc12` [Compound I-69], the IC50 in data set [1] (setting [3]) was determined as 0.018 µM; in data set [1] (setting [4]), 0.018 µM; in data set [2], 0.01 µM. Also, the CC50 in the data set “in vitro” stood at 4.6 µM.
`NC(=O)c1ncn([C@@H]2O[C@H](CO)[C@@H](O)[C@H]2O)n1` [ribavirin, 1-((2R,3R,4S,5R)-3,4-Dihydroxy-5-hydroxymethyl-tetrahydro-furan-2-yl)-1H-[1,2,4]triazole-3-carboxylic acid amide]: the “patients in whom serum amino transferase levels are reduced to normal” value in the data set with HCV is reported as 40%.

Values taken from patent US8071797B2 (priority 2008, dated 2011).
